In article PMC6304572, “Simultaneous Evaluation of the Influence of Panax ginseng on the Pharmacokinetics of Three Diester Alkaloids after Oral Administration of Aconiti Lateralis Radix in Rats Using UHPLC/QQQ-MS/MS” (Evidence-based Complementary and Alternative Medicine : eCAM, 2018):

What was measured:
[1] = Stability of the three alkaloids in rat plasma QC samples (4°C, room temperature, freeze-thaw); assay type: in vitro ADME; settings: for Freeze-thaw Accuracy: freeze-thaw three times; for Room temperature stability (24 h) Accuracy: room temperature (about 25°C)
Method: Plasma from rats without any processing was used to evaluate the detection methods. 0.1, 0.25, 0.5, 1, 2.5, 5, 10 ng/ml were chosen to calculate standards curve. 0.1, 0.4, 4, 8 ng/mL were selected as the QC sample (n = 4) with repeated operations used to calculate accuracy and precision of the detection method. The data was acquired after keeping the samples at either +4°C 24 hours or room temperature (about 25°C) for 24 hours as well as using freeze-thaw methods (three times) to evaluate stability. Recovery of the developed methods was calculated by the following formula: recovery = measured value/ theoretical value × 100%.

[2] = Pharmacokinetics of three diester alkaloids in rat plasma after oral Aconiti Lateralis Radix extract, with or without 7-day P. ginseng pretreatment; assay type: in vivo, Sprague-Dawley rats; settings: oral Aconiti Lateralis Radix extract 1 g/kg on 8th day
Method: Rats were randomly divided into 4 groups: control group, P. ginseng (low, middle, and high) group. 7 days of oral administration of P. ginseng extract was administered at a dosage of 0.1, 1, 10 g/kg for P. ginseng group (low, middle, and high), respectively, once daily. Distilled water was administered at a dosage of 2 ml/kg for control group, simultaneously. On the 8th day, Aconiti Lateralis Radix extracts (1 g/kg) were orally administered to all groups. 0.5 ml plasma samples were collected in 1.5 ml centrifuge tubes (containing heparin sodium) at 10, 30, 60, 90, 120, 240, 480, 720, 1440, and 2880 min. All plasma samples were centrifuged for 15 min at 4000g. The supernatant was separated to another 1.5 ml centrifuge tubes and stored at -20°C.
Liquid-liquid extraction (ethyl acetate) and protein precipitation (50% acetonitrile plus 50% methanol) methods were compared to determine the best method to prepare the plasma sample. Liquid-liquid extraction method was chosen, due to reproducibly high recovery rates. The details of the extraction are as follows: 10 μL carbamazepine (IS) was added to 90 μL plasma, spiked with 400 μL ethyl acetate and the mixture vortexed for 15 seconds. After centrifugation at 12,000g for 10 min, the supernatant was transferred to another 1.5 mL centrifuge tube and dried under a stream of nitrogen at 37°C. The residue was redissolved in 100 μL 50% acetonitrile and centrifuged at 12,000g for 10 min and filtered through a 0.22 μm Micropore membrane. A 5 μL volume of supernatant was injected into LC-MS system for analysis.
Xevo TQ-S (Waters, USA) was utilized for the analysis of all biological samples. Chromatographic separation was conducted on Waters ACQUITY UPLC HSS T3 1.8 μm column (2.1 mm × 100 mm). Column temperature was 45°C and the flow rate was 0.5ml/min. Room temperature was 20 ± 2°C. Phase A consisted of water and 0.1% formic acid (v/v), and phase B consisted of acetonitrile (ACN) 0.1% formic acid (v/v). Column separation was performed by gradient elution: 0-0.5 min, 10% B; 1-2 min, 90% B; 4 min, 10% B.
Electrospray ionization (ESI) and positive ion V mode were used to determine the samples. The main parameters for mass spectrum were set as follows: capillary voltage: 3.5 kv; sample cone: 60 v; source offset: 50 v; source temperature: 150°C; desolvation temperature: 350°C; cone gas flow: 150 L/h; desolvation gas flow: 650 L/h; injection volume: 5 μL.
The data was acquired and analyzed by XEVO-QT-S (Waters). The pharmacokinetic parameters were analyzed by DAS pharmacokinetic program (Version 2.0). SAS statistical software was used to determine the difference between each group. All data was presented as mean ± SD, and P<0.05 was considered statistically significant.

[3] = P. ginseng-high (10 g/kg oral, 7 days)
[4] = P. ginseng-low (0.1 g/kg oral, 7 days)
[5] = P. ginseng-middle (1 g/kg oral, 7 days)
[6] = control group (distilled water 7 days)

With `COC[C@]12CN(C)[C@@H]3[C@@H]4[C@H](OC)[C@H]1[C@@]3([C@@H](OC)C[C@H]2O)[C@@H]1C[C@@]2(O)[C@H](OC(=O)c3ccccc3)[C@@H]1[C@]4(OC(C)=O)[C@@H](O)[C@@H]2OC` [Mesaconitine] the “4°C temperature stability (24 h) Accuracy” value (shortened to “4°C temperature stability”) ([1]; QC conc. 0.40 ng/mL) was 100.28 ± 8.73%, the “Freeze-thaw Accuracy” value ([1]; QC conc. 0.40 ng/mL) was 95.09 ± 7.31% and the “Room temperature stability (24 h) Accuracy” value (shortened to “Room temperature stability”) ([1]; QC conc. 0.40 ng/mL) was 96.34 ± 6.95%. For the same compound, the “4°C temperature stability” value ([1]; QC conc. 4.00 ng/mL) was 97.02 ± 9.18%, the “Freeze-thaw Accuracy” value ([1]; QC conc. 4.00 ng/mL) was 100.37 ± 8.92% and the “Room temperature stability” value ([1]; QC conc. 4.00 ng/mL) was 93.68 ± 2.77%. For the same compound, the “4°C temperature stability” value ([1]; QC conc. 8.00 ng/mL) was 99.43 ± 4.57%, the “Freeze-thaw Accuracy” value ([1]; QC conc. 8.00 ng/mL) was 99.59 ± 3.35% and the “Room temperature stability” value ([1]; QC conc. 8.00 ng/mL) was 100.72 ± 4.78%. The “AUC(0-t)” value [2, 3] was 126.07 ± 44.93^∗∗ μg/L∗h, the “AUC(0-∞)” value [2, 3] was 138.96 ± 55.36^∗∗ μg/L∗h and the CLz/F [2, 3] was 81.37 ± 29.62^∗∗ L/h/Kg. For the same compound, the Cmax [2, 3] was 8.94 ± 2.33^∗ μg/L, the Tmax [2, 3] was 2.20 ± 1.98 h and the Vz/F [2, 3] was 1395.19 ± 472.75^∗∗ L/kg. The t1/2z [2, 3] was 12.56 ± 4.48 h, the “AUC(0-t)” value ([2]; P. ginseng-high (10 g/kg oral, 7 days), listed as mesaconitine) was 126.07 ± 44.93 μg/L∗h and the “AUC(0-t)” value [2, 4] was 65.53 ± 9.06 μg/L∗h. The “AUC(0-∞)” value [2, 4] was 71.36 ± 12.85 μg/L∗h, the CLz/F [2, 4] was 144.13 ± 26.77 L/h/kg and the Cmax [2, 4] was 4.66 ± 1.03 µg/L. The Tmax [2, 4] was 0.89 ± 0.60 h, the Vz/F [2, 4] was 2386.47 ± 832.39 L/kg and the t1/2z [2, 4] was 12.12 ± 6.11 h. For the same compound, the “AUC(0-t)” value [2, 5] was 82.45 ± 18.57^∗ μg/L∗h, the “AUC(0-∞)” value [2, 5] was 87.1 ± 21.80^∗ μg/L∗h and the CLz/F [2, 5] was 120.75 ± 29.09^∗ L/h/Kg. For the same compound, the Cmax [2, 5] was 6.02 ± 1.63 µg/L, the Tmax [2, 5] was 1.83 ± 1.21 h and the Vz/F [2, 5] was 1745.91 ± 488.37^∗ L/kg. The t1/2z [2, 5] was 10.31 ± 3.00 h, the “AUC(0-t)” value ([2]; P. ginseng-middle (1 g/kg oral, 7 days), listed as mesaconitine) was 82.45 ± 18.57 μg/L∗h and the “AUC(0-t)” value [2, 6] was 51.24 ± 21.48 μg/L∗h. The “AUC(0-∞)” value [2, 6] was 58.66 ± 27.59 μg/L∗h, the CLz/F [2, 6] was 217.47 ± 130.54 L/h/kg and the Cmax [2, 6] was 5.48 ± 2.61 µg/L. For the same compound, the Tmax [2, 6] was 1.58 ± 1.32 h, the Vz/F [2, 6] was 3146.87 ± 1886.84 L/kg and the t1/2z [2, 6] was 13.17 ± 10.45 h.
